Assay results as given in patent US11197836B2, “Topical vasoconstrictor preparations and methods for protecting cells during cancer chemotherapy and radiotherapy” (WISCONSIN ALUMNI RESEARCH FOUNDATION, priority 2005, dated 2021).
Blank lines part the entries; values can stand above or below the compound they belong to.

Experiments:
[1] = Dissolution and 24 hr solution status of vasoconstrictor salts in ethanol:PG:water diluents, Example 6; type: physicochemical
Method: Aliquots of each vasoconstrictor salt were weighed into glass test tubes. The volume of liquid necessary to achieve the indicated final drug concentration was then added.
(§1) The approximate amount of heat required to dissolve the vasoconstrictor salt in each diluent is indicated. Once diluted, samples were sealed and held at room temperature (22° C.) for 24 hours and then at 4° C. for 24 hours. Skin blanch induced by the topical formulation was assessed by applying freshly made, clear formulation to human skin shortly after initial mixing. Drug solutions were monitored for the appearance of precipitated material over a 48 hour observation period.

[2] = test system: radiation-induced alopecia; details: 950 mM in 50:30:20 ethanol:PG:water, 10 day old rats
Method: At specific time points, digital images were recorded to show areas of skin blanch in the epi-treated rats.

[3] = test system: radiation-induced oral mucositis; assay: Radiation-induced oral mucositis in hamster cheek pouch, Example 16; details: for mucosal pathology: hamster cheek pouch
human oral mucosa = test system: human oral mucosa
Method: A QTip wetted with the 1 mM solution was used to swab the lower lip and oral mucosa adjoining the lower lip during the first 20 min. […] Images were taken and then scored for the degree of mucosal blanch observed.

human skin = assay: Human skin blanch 20 min after topical application, Example 6; type: in vivo; details: for Skin Blanch: 600 mM, human skin, 20 min after topical application
Method: as §1

human forearm skin = assay: Human forearm skin blanch and irritation with permeation enhancers, Example 8; type: in vivo; details: water
Method: In samples where a clear, norepinephrine-containing solution was achieved, an aliquot (˜100 μl) was applied to a ˜1 cm^2 area of human forearm skin using a cotton swab. The extent of skin blanch (i.e., dermal vasculature constriction) beneath the application site was visually scored over the 60 min following application.

[4] = 50:30:20 Ethanol:PG:water, 750 mM
[5] = 15:30:55 Ethanol:PG:water, 1000 mM
[6] = 20:30:50 Ethanol:PG:water, 1500 mM
[7] = 60:0:40 isopropanol:PG:water, 1500 mM
[8] = 10 mM topical, human lip and oral mucosa
[9] = 0:50:50 Ethanol:PG:water, 1800 mM
[10] = 0:80:20 Ethanol:PG:water, 1800 mM
[11] = 12:30:58 Ethanol:PG:water, 450 mM
[12] = 12:30:58 Ethanol:PG:water, 600 mM
[13] = 12:30:58 Ethanol:PG:water, 750 mM
[14] = 15:30:55 Ethanol:PG:water, 600 mM
[15] = 33:33:33 Ethanol:PG:water, 1800 mM
[16] = 40:25:35 Ethanol:PG:water, 600 mM
[17] = 40:30:30 Ethanol:PG:water, 300 mM
[18] = 44:18:33 Ethanol:PG:water, 600 mM
[19] = 45:25:30 Ethanol:PG:water, 300 mM
[20] = 45:25:30 Ethanol:PG:water, 600 mM
[21] = 50:20:30 Ethanol:PG:water, 600 mM
[22] = 50:25:25 Ethanol:PG:water, 600 mM
[23] = 50:30:20 Ethanol:PG:water, 600 mM
[24] = 55:20:25 Ethanol:PG:water, 600 mM
[25] = 60:20:20 Ethanol:PG:water, 600 mM
[26] = 10:30:60 Ethanol:PG:water, 4000 mM
[27] = 10:30:60 Ethanol:PG:water, 5000 mM
[28] = 10:30:60 Ethanol:PG:water, 5500 mM
[29] = 12:30:58 Ethanol:PG:water, 3300 mM
[30] = 15:30:55 Ethanol:PG:water, 500 mM

Heat required to completely dissolve vasoconstrictor salt (#secs. at 100° C.) [1, 4]: 0 s
Sample status after 24 hr at 4° C. [1, 4]: clear
Sample status after 24 hr at ~22° C. [1, 4]: clear
Compound: CNC[C@H](O)c1ccc(O)c(O)c1.Cl (racemic) [Epi (±), (±) epinephrine-HCl]
skin blanch in treated skin field ([2]; by 120 min): single blanched field
coat protection on day 20 ([2]; four applications, 7.5 Gy whole-body γ radiation): confluent area of protected coat

mucosal pathology ([3]; large excess doses combined with 24 min of irradiation (40 Gy)): severe mucosal pathology
mucosal pathology ([3]; large excess doses without irradiation): no discernible mucosal pathology
Heat required to completely dissolve vasoconstrictor salt (#secs. at 100° C.) [1, 5]: 0 s
Sample status after 24 hr at 4° C. [1, 5]: clear
Sample status after 24 hr at ~22° C. [1, 5]: clear
Heat required to completely dissolve vasoconstrictor salt (#secs. at 100° C.) [1, 6]: 0 s
Sample status after 24 hr at 4° C. [1, 6]: clear
Sample status after 24 hr at ~22° C. [1, 6]: clear
Heat required to completely dissolve vasoconstrictor salt (#secs. at 100° C.) [1, 7]: 0 s
Sample status after 24 hr at 4° C. [1, 7]: clear
Sample status after 24 hr at ~22° C. [1, 7]: clear
Compound: CNC[C@H](O)c1ccc(O)c(O)c1.O=C(O)C(O)C(O)C(=O)O [Epi, L (−) epinephrine-tartrate]
topical concentration completely protective against γ radiation-induced pathology ([3]; hamster cheek pouch mucosal surface): 400 μM
blanch response (human oral mucosa; 1 mM solution swabbed on lower lip and oral mucosa during first 20 min, human): little blanch response
duration of blanching (human oral mucosa; 10 mM topical, four times over 50 min, human lip and oral mucosa): 1.5 to 2 h
time to clear blanching of lip and mucosa (human oral mucosa; [8]): ≤ 20 min
time to normal color lip and mucosa (human oral mucosa; [8]): ≤ 3 h

Compound: COc1ccc(OC)c(C(O)C(C)N)c1 (stereo not drawn) [Methoxamine]
potency to induce skin blanch (human skin; applied to unbroken human skin): lacks the potency to adequately induce skin blanch

Heat required to completely dissolve vasoconstrictor salt (#secs. at 100° C.) [1, 9]: 6 s
Sample status after 24 hr at 4° C. [1, 9]: precipitate
Sample status after 24 hr at ~22° C. [1, 9]: precipitate
Heat required to completely dissolve vasoconstrictor salt (#secs. at 100° C.) [1, 10]: 24 s
Sample status after 24 hr at 4° C. [1, 10]: precipitate
Sample status after 24 hr at ~22° C. [1, 10]: precipitate
Heat required to completely dissolve vasoconstrictor salt (#secs. at 100° C.) [1, 11]: 0 s
Sample status after 24 hr at 4° C. [1, 11]: clear
Sample status after 24 hr at ~22° C. [1, 11]: clear
Heat required to completely dissolve vasoconstrictor salt (#secs. at 100° C.) [1, 12]: 0 s
Sample status after 24 hr at 4° C. [1, 12]: clear
Sample status after 24 hr at ~22° C. [1, 12]: clear
Heat required to completely dissolve vasoconstrictor salt (#secs. at 100° C.) [1, 13]: 0 s
Sample status after 24 hr at 4° C. [1, 13]: clear
Sample status after 24 hr at ~22° C. [1, 13]: clear
Heat required to completely dissolve vasoconstrictor salt (#secs. at 100° C.) [1, 14]: 0 s
Sample status after 24 hr at 4° C. [1, 14]: clear
Sample status after 24 hr at ~22° C. [1, 14]: clear
Heat required to completely dissolve vasoconstrictor salt (#secs. at 100° C.) [1, 5]: 0 s
Sample status after 24 hr at 4° C. [1, 5]: clear
Sample status after 24 hr at ~22° C. [1, 5]: clear
Heat required to completely dissolve vasoconstrictor salt (#secs. at 100° C.) [1, 15]: 18 s
Sample status after 24 hr at 4° C. [1, 15]: precipitate
Sample status after 24 hr at ~22° C. [1, 15]: precipitate
Heat required to completely dissolve vasoconstrictor salt (#secs. at 100° C.) [1, 16]: 2 s
Sample status after 24 hr at 4° C. [1, 16]: clear
Sample status after 24 hr at ~22° C. [1, 16]: clear
Heat required to completely dissolve vasoconstrictor salt (#secs. at 100° C.) [1, 17]: 2 s
Sample status after 24 hr at 4° C. [1, 17]: clear
Sample status after 24 hr at ~22° C. [1, 17]: clear
Heat required to completely dissolve vasoconstrictor salt (#secs. at 100° C.) [1, 18]: 2 s
Sample status after 24 hr at 4° C. [1, 18]: clear
Sample status after 24 hr at ~22° C. [1, 18]: clear
Heat required to completely dissolve vasoconstrictor salt (#secs. at 100° C.) [1, 19]: 2 s
Sample status after 24 hr at 4° C. [1, 19]: clear
Sample status after 24 hr at ~22° C. [1, 19]: clear
Heat required to completely dissolve vasoconstrictor salt (#secs. at 100° C.) [1, 20]: 2 s
Sample status after 24 hr at 4° C. [1, 20]: clear
Sample status after 24 hr at ~22° C. [1, 20]: clear
Heat required to completely dissolve vasoconstrictor salt (#secs. at 100° C.) [1, 21]: 1 s
Sample status after 24 hr at 4° C. [1, 21]: clear
Sample status after 24 hr at ~22° C. [1, 21]: clear
Heat required to completely dissolve vasoconstrictor salt (#secs. at 100° C.) [1, 22]: 1 s
Sample status after 24 hr at 4° C. [1, 22]: clear
Sample status after 24 hr at ~22° C. [1, 22]: clear
Heat required to completely dissolve vasoconstrictor salt (#secs. at 100° C.) [1, 23]: 1 s
Sample status after 24 hr at 4° C. [1, 23]: clear
Sample status after 24 hr at ~22° C. [1, 23]: clear
Heat required to completely dissolve vasoconstrictor salt (#secs. at 100° C.) [1, 24]: 1 s
Sample status after 24 hr at 4° C. [1, 24]: precipitate
Sample status after 24 hr at ~22° C. [1, 24]: precipitate
Heat required to completely dissolve vasoconstrictor salt (#secs. at 100° C.) [1, 25]: 2 s
Sample status after 24 hr at 4° C. [1, 25]: clear
Sample status after 24 hr at ~22° C. [1, 25]: clear
Compound: NC[C@H](O)c1ccc(O)c(O)c1.O=C(O)C(O)C(O)C(=O)O [Nep, L (−) norepinephrine-tartrate]
Skin Irritation (human forearm skin; 300 mM Nep): No
Skin Irritation (human forearm skin; 300 mM Nep, 0.8% SLS): No
Skin Blanch (human forearm skin; 300 mM Nep, 0.8% SLS, 20 min): 0
Skin Blanch (human forearm skin; 300 mM Nep, 20 min after topical application): 0
Skin Irritation (human forearm skin; 300 mM Nep, ethanol): No
Skin Irritation (human forearm skin; 300 mM Nep, ethanol, 0.8% SLS): Slight
Skin Irritation (human forearm skin; 300 mM Nep, ethanol, 5% Menthone): Slight
Skin Irritation (human forearm skin; 300 mM Nep, ethanol, PG): No
Skin Irritation (human forearm skin; 300 mM Nep, ethanol, PG, 0.3% SLS): No
Skin Irritation (human forearm skin; 300 mM Nep, ethanol, PG, 0.3% SLS, 5% Menthone): Yes
Skin Blanch (human forearm skin; 300 mM Nep, ethanol, PG, 0.3% SLS, 5% Menthone, 20 min): +++++ (+++++ = 90-100% blanch)
Skin Irritation (human forearm skin; 300 mM Nep, ethanol, PG, 5% Methone): No
Skin Irritation (human forearm skin; 300 mM Nep, ethanol, Transcutol): No
Skin Irritation (human forearm skin; 300 mM Nep, ethanol, Transcutol, 0.4% SLS): No
Skin Irritation (human forearm skin; 600 mM NEp, ethanol, PG): No
Skin Blanch (human forearm skin; 600 mM NEp, ethanol, PG, 20 min): +++++ (+++++ = 90-100% blanch)
Skin Irritation (human forearm skin; 750 mM NEp, ethanol, PG): No
Skin Blanch (human forearm skin; 750 mM NEp, ethanol, PG, 20 min): +++++ (+++++ = 90-100% blanch)
Skin Blanch (human skin; 55:20:25 Ethanol:PG:water): +++++ (+++++ = 90-100% blanch)
Skin Blanch (human skin; 60:20:20 Ethanol:PG:water): +++++ (+++++ = 90-100% blanch)

Compound: CNC[C@H](O)c1cccc(O)c1.Cl [PhE, R (−) phenylephrine-HCl]
Heat required to completely dissolve vasoconstrictor salt (#secs. at 100° C.) [1, 26]: 12 s
Sample status after 24 hr at 4° C. [1, 26]: precipitate
Sample status after 24 hr at ~22° C. [1, 26]: precipitate
Heat required to completely dissolve vasoconstrictor salt (#secs. at 100° C.) [1, 27]: 12 s
Sample status after 24 hr at 4° C. [1, 27]: precipitate
Sample status after 24 hr at ~22° C. [1, 27]: precipitate
Heat required to completely dissolve vasoconstrictor salt (#secs. at 100° C.) [1, 28]: 16 s
Sample status after 24 hr at 4° C. [1, 28]: precipitate
Sample status after 24 hr at ~22° C. [1, 28]: precipitate
Heat required to completely dissolve vasoconstrictor salt (#secs. at 100° C.) [1, 29]: 8 s
Sample status after 24 hr at 4° C. [1, 29]: precipitate
Sample status after 24 hr at ~22° C. [1, 29]: precipitate
Heat required to completely dissolve vasoconstrictor salt (#secs. at 100° C.) [1, 30]: 8 s
Sample status after 24 hr at 4° C. [1, 30]: precipitate
Sample status after 24 hr at ~22° C. [1, 30]: clear
